In patent US20170368052A1, “CRYSTAL FORMS OF APOMORPHINE AND USES THEREOF” (NeuroDerm, Ltd., priority 2014, published 2017):

What was measured:
Type in all cases: physicochemical
[1] = Equilibrium desiccator analysis at 75-80% RH; conditions: 75 to 80% RH at 18-23° C., after 1 h
[2] = Stability of the reaction mixture at reflux in IPA with/without ascorbic acid-6-palmitate (HPLC); conditions: solution at reflux with ascorbic acid-6-palmitate
Procedure: In this case, the base was added under reflux and the procedure compared with and without ascorbic acid-6-palmitate as an antioxidant (Table 7).

[3] = Process hold-point stability (purity profile)
Procedure: An optimized non-aqueous procedure is provided below and shown in Scheme 4. • 1. Add apomorphine hydrochloride (1.0 wt), ascorbic acid-6-palmitate (0.01 wt), IPA (30 vol) and stir at 18-23° C. • 2. Vacuum/nitrogen purge the vessel 3× at 18-23° C. and place under a flow of nitrogen. • 3. Heat the slurry to 60-65° C. • 4. Add 3-amino-1-propanol (1.1 eq, 0.25 vol) maintaining 60-70° C. (target 60-65° C.). • 5. As required, cool the reaction mixture to 60-65° C. […] Stir for 15-20 minutes and check for full dissolution. • 7. On full dissolution, clarify the reaction mixture through a ≦1 μm filter and line rinse with IPA (3 vol) at 60-65° C. (Note: the reaction solution is highly unstable to air while hot, therefore total exclusion of air is required.) • 8. Concentrate the reaction mixture under reduced pressure to approximately 10 vol maintaining 55-65° C. • 9. […] Cool the slurry to 68-71° C. and age for 1 h (crystallization is expected during the cool down period approximately 72° C.). • 11. Slow the stirring for the remainder of the preparation to the minimum effective rate and check for crystallization: if crystallization has not occurred, seed the reaction with 0.1 wt % of seeds and age for 1 h. • 12. Cool the slurry to 18-23° C. over 5-6 h at an approximately constant rate. • 13. Age the slurry at 18-23° C. for 2-16 h. • 14. […]

CN1CCc2cccc3c2[C@H]1Cc1ccc(O)c(O)c1-3 [A0505-110-D1, apomorphine free base]
Weight increase [1]: 2.0 % w/w

CN1CCc2cccc3c2C1Cc1ccc(O)c(O)c1-3 (stereo not shown) [A0513-98-01]
% area: RRT 1.00 [2]: 99.83 % area | % area: RRT 1.25 [2]: 0.04 % area | % area: RRT 1.71 [2]: 0.06 % area | % area: RRT 1.76 [2]: 0.04 % area | Change in purity profile ([3]; reaction mixture held 2 h at reflux (83° C.)): no significant change

CC(C)O.CN1CCc2cccc3c2C1Cc1ccc(O)c(O)c1-3 (stereo not shown) [A0513-126, apomorphine free base IPA solvate]
Change in purity profile of the material isolated ([3]; distillation over 6 h at 60-65° C.): no significant change
